Reference: paper PMC8459971, “Evaluation of the hepatotoxicity of the novel GPR40 (FFAR1) agonist CPL207280 in the rat and monkey” (PLoS ONE, 2021)
Values joined by “and” are separate entries in the source; they are usually repeats but may differ in a detail not shown here. Identical values can stand only once.

How the values were obtained:
[1] = Stability in microsomes, dog; type: in vitro ADME; conditions: for average DEG [%]: dog microsomes, with cofactors
Description: (§1) The final incubation volume was 500 μL. Two control compounds (verapamil and donepezil) were included for each microsomal species, along with the appropriate vehicle control. The reactions were terminated by transferring 50 μL of incubate to 100 μL methanol containing an internal standard (metoprolol) at appropriate time points (0, 10, 20, 40, 60, and 120 min for the test compound and 0, 5, 10, 20, 40, and 60 min for the control compounds). The termination plates were centrifuged at 4000 x g at 4°C for 30 min to precipitate the protein. The supernatants were then collected for analysis, and LC-MS/MS was used for detection purposes. The system consisted of an Acquity™ Binary Solvent Manager, Acquity™ 4-position heated column manager, 2777 Ultra High Pressure Autosampler, and a Xevo-TQ MS triple quadrupole mass spectrometer (Waters Ltd., Herts, UK). This process was carried out twice.

[2] = Stability in microsomes, mouse; type: in vitro ADME; conditions: for average DEG [%]: mouse microsomes, with cofactors
Description: as §1

[3] = target: T1, OAT1 (Homo sapiens, UniProt Q4U2R8); test: Uptake transporter inhibition assay, OAT1; conditions: for Accumulation (counts per minute; CPM) HEK293FT-MOCK / Accumulation (counts per minute; CPM) HEK293FT-OAT1: OAT1;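 further: HEK293FT cells expressing OAT1 or mock, uptake of radiolabeled probe substrate at 37 °C in HBSS pH 7.4 with test compound or solvent, cell lysate read by liquid scintillation counting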
T1 sequence (Q4U2R8 1-563): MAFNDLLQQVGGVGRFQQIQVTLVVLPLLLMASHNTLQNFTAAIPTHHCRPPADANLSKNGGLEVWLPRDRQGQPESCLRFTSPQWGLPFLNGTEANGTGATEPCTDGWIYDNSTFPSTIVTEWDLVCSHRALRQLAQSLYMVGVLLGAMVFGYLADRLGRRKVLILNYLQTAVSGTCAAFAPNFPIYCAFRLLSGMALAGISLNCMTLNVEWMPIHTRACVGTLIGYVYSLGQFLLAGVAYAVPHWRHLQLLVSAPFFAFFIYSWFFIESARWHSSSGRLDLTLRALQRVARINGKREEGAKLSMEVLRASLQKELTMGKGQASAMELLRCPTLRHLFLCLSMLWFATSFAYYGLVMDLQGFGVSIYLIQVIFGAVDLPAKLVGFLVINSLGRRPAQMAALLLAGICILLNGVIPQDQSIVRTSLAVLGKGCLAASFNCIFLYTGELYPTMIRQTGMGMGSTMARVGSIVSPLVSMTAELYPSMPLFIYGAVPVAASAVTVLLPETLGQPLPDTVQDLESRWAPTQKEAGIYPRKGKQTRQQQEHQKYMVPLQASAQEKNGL
Description: For the uptake transporter inhibition assay, cells were washed twice with 100 μL of the appropriate buffer (HK, pH 7.4) for OATP1B1, followed by HBSS (pH 7.4) for (NTCP, OAT1, OAT2v1, OATP1A2, and OATP1B3). Uptake experiments were carried out at 37 ± 1°C in 50 μL of the respective buffer containing the probe substrate and the compound or solvent. […] After the experiment, cells were washed twice with 100 μL of cold appropriate buffer and lysed with 50 μL of 0.1 M NaOH. Radiolabeled probe substrate transport was determined by measuring an aliquot (35 μL) from each well for liquid scintillation counting.

[4] = target: MRP3 (Homo sapiens, UniProt O15438); test: Vesicular transport inhibition assay, MRP3; conditions: for Accumulation (counts per minute; CPM) with AMP / Accumulation (counts per minute; CPM) with ATP: MRP3;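 further: membrane vesicles with radiolabelled probe substrate and 2 mM glutathione, 4 mM ATP versus AMP background control, vesicle-trapped substrate quantified by liquid scintillation counting after filtration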;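 on Accumulation (counts per minute; CPM) with AMP: ATP 4 mM vs AMP background separates transporter uptake from diffusion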;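 on Accumulation (counts per minute; CPM) with ATP: ATP 4 mM vs AMP background separates transporter uptake from diffusion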
Description: (§2) In the vesicular transport inhibition assay (for BSEP, MRP) compounds were incubated with membrane vesicle preparations and the probe substrate. Incubations were carried out in the presence of 4 mM ATP or AMP to distinguish between transporter-mediated uptake and passive diffusion into the vesicles. For MRP2 and MRP3, reactions were carried out in the presence of 2 mM glutathione. Compounds were added to the reaction mixture in 0.75 μL of solvent (1% of the final incubation volume). […] Reactions were initiated by the addition of 25 μL of 12 mM MgATP (or 12 mM AMP in assay buffer as a background control) and preincubated separately. Reactions were quenched by the addition of 200 μL of ice-cold washing buffer and immediate filtration via glass fiber filters mounted on a 96-well plate (filter plate). The filters were washed (5 × 200 μL of ice-cold washing buffer), dried, and the amount of substrate inside the filtered vesicles was determined by liquid scintillation counting.

[5] = target: BSEP (Homo sapiens, UniProt O95342); test: Vesicular transport inhibition assay, BSEP
Description: as §2

[6] = target: T2, NTCP (Homo sapiens, UniProt Q14973); test: Uptake transporter inhibition assay, NTCP; type: cell-based; conditions: for Accumulation (counts per minute; CPM) HEK293-NTCP / Accumulation (counts per minute; CPM) HEK293FT-MOCK: NTCP
T2 construct: expressed in transfected cells; host or cells: HEK cells
T2 sequence (Q14973 1-349): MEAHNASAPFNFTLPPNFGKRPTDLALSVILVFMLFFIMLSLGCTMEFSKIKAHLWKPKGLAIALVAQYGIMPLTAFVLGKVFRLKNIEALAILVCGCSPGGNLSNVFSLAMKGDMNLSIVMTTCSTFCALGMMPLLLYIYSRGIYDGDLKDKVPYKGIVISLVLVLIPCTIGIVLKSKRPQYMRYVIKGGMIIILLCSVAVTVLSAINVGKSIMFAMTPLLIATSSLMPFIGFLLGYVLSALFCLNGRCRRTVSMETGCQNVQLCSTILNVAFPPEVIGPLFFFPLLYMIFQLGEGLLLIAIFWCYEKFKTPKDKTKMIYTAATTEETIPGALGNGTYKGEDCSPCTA
Description: For the uptake transporter inhibition assay, cells were washed twice with 100 μL of the appropriate buffer (HK, pH 7.4) for OATP1B1, followed by HBSS (pH 7.4) for (NTCP, OAT1, OAT2v1, OATP1A2, and OATP1B3). Uptake experiments were carried out at 37 ± 1°C in 50 μL of the respective buffer containing the probe substrate and the compound or solvent.

[7] = Pharmacokinetics in mice, serum and liver concentrations; conditions: for serum conc: mouse, 3 mg/kg p.o., individual animals, 3 mg/kg
Description: The mice were separated into four groups of 32 mice per group. […] At time point t = 0, animals received a single dose of the compounds orally. […] Four hours after drug administration, the animals received standard chow. […] After solubilization in extraction buffer, the solutions were shaken for 1 min and then centrifuged for 4 min (4000 x g).

[8] = Dog (Beagle) microsomes, mean n = 2
[9] = Mouse (CD) microsomes, mean n = 2

Chain of MRP3 (O15438 whole entry, the tested form may be a part): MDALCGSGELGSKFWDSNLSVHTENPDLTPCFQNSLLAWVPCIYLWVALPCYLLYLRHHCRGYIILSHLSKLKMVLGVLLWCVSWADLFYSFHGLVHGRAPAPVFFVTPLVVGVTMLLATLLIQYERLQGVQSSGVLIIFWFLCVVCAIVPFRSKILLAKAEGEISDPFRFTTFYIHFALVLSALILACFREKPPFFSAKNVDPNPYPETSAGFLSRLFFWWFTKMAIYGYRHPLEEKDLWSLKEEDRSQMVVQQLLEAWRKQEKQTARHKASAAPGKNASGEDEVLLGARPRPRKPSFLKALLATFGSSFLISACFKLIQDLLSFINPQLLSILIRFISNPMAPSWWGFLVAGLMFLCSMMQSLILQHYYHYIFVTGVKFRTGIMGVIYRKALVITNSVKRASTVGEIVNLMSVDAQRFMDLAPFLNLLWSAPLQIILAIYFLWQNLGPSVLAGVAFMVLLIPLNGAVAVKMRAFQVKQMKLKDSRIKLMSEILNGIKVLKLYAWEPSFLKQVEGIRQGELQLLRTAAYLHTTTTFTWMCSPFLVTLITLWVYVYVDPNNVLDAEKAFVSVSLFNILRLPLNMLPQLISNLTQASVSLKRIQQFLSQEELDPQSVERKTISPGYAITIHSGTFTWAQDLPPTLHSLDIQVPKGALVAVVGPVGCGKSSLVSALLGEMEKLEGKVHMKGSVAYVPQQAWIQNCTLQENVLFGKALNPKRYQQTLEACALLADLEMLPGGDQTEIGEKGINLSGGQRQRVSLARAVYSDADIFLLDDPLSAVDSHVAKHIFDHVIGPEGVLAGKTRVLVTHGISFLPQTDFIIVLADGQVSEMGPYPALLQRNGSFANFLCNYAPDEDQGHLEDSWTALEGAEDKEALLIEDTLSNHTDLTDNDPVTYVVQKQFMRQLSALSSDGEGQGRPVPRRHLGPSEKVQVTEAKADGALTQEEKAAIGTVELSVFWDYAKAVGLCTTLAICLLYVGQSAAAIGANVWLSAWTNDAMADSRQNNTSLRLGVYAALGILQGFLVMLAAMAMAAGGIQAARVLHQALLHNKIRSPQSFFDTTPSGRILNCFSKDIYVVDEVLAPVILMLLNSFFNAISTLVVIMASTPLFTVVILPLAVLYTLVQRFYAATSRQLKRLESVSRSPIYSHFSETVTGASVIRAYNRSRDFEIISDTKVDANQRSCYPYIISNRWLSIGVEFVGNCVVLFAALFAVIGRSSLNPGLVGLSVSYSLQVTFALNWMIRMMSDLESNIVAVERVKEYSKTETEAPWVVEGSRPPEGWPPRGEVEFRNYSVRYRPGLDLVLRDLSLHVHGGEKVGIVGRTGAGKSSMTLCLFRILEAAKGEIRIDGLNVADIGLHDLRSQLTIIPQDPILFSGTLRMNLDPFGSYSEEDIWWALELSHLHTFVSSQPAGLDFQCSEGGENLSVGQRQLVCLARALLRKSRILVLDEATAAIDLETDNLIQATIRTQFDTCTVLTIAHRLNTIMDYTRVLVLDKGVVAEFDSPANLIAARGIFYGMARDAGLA
Chain of BSEP (O95342 whole entry): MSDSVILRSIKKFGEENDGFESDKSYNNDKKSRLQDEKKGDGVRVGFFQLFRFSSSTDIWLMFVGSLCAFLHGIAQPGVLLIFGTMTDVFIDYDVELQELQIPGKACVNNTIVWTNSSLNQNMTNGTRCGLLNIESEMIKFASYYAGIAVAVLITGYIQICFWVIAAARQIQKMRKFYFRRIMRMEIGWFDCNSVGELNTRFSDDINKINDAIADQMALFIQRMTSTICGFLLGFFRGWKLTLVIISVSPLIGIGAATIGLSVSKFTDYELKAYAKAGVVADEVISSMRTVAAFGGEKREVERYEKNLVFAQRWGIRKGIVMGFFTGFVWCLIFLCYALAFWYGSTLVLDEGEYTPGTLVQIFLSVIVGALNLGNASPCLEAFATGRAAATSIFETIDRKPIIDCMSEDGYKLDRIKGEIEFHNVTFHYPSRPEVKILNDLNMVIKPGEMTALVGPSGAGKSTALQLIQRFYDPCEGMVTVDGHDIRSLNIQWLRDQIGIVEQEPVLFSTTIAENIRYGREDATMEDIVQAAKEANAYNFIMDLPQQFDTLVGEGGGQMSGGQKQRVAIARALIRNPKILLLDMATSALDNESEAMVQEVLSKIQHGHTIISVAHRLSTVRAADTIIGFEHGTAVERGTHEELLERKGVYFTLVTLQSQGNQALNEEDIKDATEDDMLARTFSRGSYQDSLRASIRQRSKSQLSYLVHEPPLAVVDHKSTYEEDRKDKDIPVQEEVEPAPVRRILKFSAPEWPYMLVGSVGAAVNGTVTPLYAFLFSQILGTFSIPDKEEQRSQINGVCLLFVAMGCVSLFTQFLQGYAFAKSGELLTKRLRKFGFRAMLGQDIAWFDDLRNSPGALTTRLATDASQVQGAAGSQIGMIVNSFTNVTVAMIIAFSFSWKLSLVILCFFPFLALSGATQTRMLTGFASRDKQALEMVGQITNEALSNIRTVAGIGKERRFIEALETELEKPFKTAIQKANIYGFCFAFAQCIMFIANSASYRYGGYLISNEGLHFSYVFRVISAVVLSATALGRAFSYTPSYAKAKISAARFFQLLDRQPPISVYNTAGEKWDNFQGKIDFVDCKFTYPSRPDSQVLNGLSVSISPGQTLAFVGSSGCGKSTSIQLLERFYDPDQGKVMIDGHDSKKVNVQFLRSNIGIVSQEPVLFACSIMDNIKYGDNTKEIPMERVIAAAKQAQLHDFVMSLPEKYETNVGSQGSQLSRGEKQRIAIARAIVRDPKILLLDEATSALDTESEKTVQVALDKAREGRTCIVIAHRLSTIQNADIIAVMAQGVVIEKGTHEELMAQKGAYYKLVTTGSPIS

CC#C[C@@H](CC(=O)O)c1ccc(OCC(C)=C(C)C)cc1 [CPL207280]
half-life at 3 μM [1, 8]: 1.35 h
microsomal CLint at 3 μM [1, 8]: 17.1 µL/min/mg
average DEG [%] ([1]; 0 min): 100.0%
average DEG [%] ([1]; 20 min): 86.5%
average DEG [%] ([1]; 40 min): 74.9%
average DEG [%] ([1]; 60 min): 59.3%
half-life at 3 μM [2, 9]: 1.93 h
microsomal CLint at 3 μM [2, 9]: 11.9 µL/min/mg
average DEG [%] ([2]; 0 min): 100.0%
average DEG [%] ([2]; 20 min): 83.3%
average DEG [%] ([2]; 40 min): 69.8%
average DEG [%] ([2]; 60 min): 71.2%
IC50 [3]: 245 µM
fold less inhibitory potency than TAK-875, OAT1 [3]: at least 10 fold
Accumulation (counts per minute; CPM) HEK293FT-MOCK ([3]; conc 0.10 µM): 50 CPM and 53 CPM
Accumulation (counts per minute; CPM) HEK293FT-OAT1 ([3]; conc 0.10 µM): 3966 CPM and 4397 CPM
Accumulation (counts per minute; CPM) HEK293FT-MOCK ([3]; conc 1.00 µM): 48 CPM and 53 CPM
Accumulation (counts per minute; CPM) HEK293FT-OAT1 ([3]; conc 1.00 µM): 3796 CPM and 3875 CPM
Accumulation (counts per minute; CPM) HEK293FT-MOCK ([3]; conc 3.00 µM): 43 CPM
Accumulation (counts per minute; CPM) HEK293FT-OAT1 ([3]; conc 3.00 µM): 3567 CPM and 3805 CPM
Accumulation (counts per minute; CPM) HEK293FT-OAT1 ([3]; conc 10.00 µM): 3588 CPM and 3708 CPM
Accumulation (counts per minute; CPM) HEK293FT-MOCK ([3]; conc 30.00 µM): 36 CPM and 51 CPM
Accumulation (counts per minute; CPM) HEK293FT-OAT1 ([3]; conc 30.00 µM): 3509 CPM and 3520 CPM
Accumulation (counts per minute; CPM) HEK293FT-MOCK ([3]; conc 100.00 µM): 35 CPM and 46 CPM
Accumulation (counts per minute; CPM) HEK293FT-OAT1 ([3]; conc 100.00 µM): 2841 CPM and 2828 CPM
Accumulation (counts per minute; CPM) HEK293FT-MOCK ([3]; conc 300.00 µM): 36 CPM and 54 CPM
Accumulation (counts per minute; CPM) HEK293FT-OAT1 ([3]; conc 300.00 µM): 1655 CPM and 1827 CPM
Accumulation (counts per minute; CPM) with AMP ([4]; conc 0.10 µM): 240 CPM and 237 CPM
Accumulation (counts per minute; CPM) with ATP ([4]; conc 0.10 µM): 3273 CPM and 4152 CPM
Accumulation (counts per minute; CPM) with AMP ([4]; conc 1.00 µM): 221 CPM and 228 CPM
Accumulation (counts per minute; CPM) with ATP ([4]; conc 1.00 µM): 4818 CPM and 3968 CPM
Accumulation (counts per minute; CPM) with AMP ([4]; conc 3.00 µM): 249 CPM and 236 CPM
Accumulation (counts per minute; CPM) with ATP ([4]; conc 3.00 µM): 4175 CPM and 4726 CPM
Accumulation (counts per minute; CPM) with AMP ([4]; conc 10.00 µM): 274 CPM and 219 CPM
Accumulation (counts per minute; CPM) with ATP ([4]; conc 10.00 µM): 3924 CPM and 3961 CPM
Accumulation (counts per minute; CPM) with AMP ([4]; conc 30.00 µM): 231 CPM and 249 CPM
Accumulation (counts per minute; CPM) with ATP ([4]; conc 30.00 µM): 5849 CPM and 5611 CPM
Accumulation (counts per minute; CPM) with AMP ([4]; conc 100.00 µM): 250 CPM and 247 CPM
Accumulation (counts per minute; CPM) with ATP ([4]; conc 100.00 µM): 5885 CPM and 4953 CPM
Accumulation (counts per minute; CPM) with AMP ([4]; conc 300.00 µM): 206 CPM and 163 CPM
Accumulation (counts per minute; CPM) with ATP ([4]; conc 300.00 µM): 6861 CPM and 6621 CPM
MRP3 Estimated IC50 (95% CI of IC50) ([4]; vesicles, up to 300μM, n = 2): no affinity
Accumulation (counts per minute; CPM) HEK293-BSEP ([5]; conc 0.41 µM): 13312 CPM and 13786 CPM and 14638 CPM
Accumulation (counts per minute; CPM) HEK293-MOCK ([5]; conc 0.41 µM): 373 CPM and 338 CPM and 317 CPM
Accumulation (counts per minute; CPM) HEK293-BSEP ([5]; conc 1.23 µM): 14288 CPM and 14991 CPM and 14336 CPM
Accumulation (counts per minute; CPM) HEK293-MOCK ([5]; conc 1.23 µM): 402 CPM and 297 CPM and 306 CPM
Accumulation (counts per minute; CPM) HEK293-BSEP ([5]; conc 3.70 µM): 14804 CPM and 15510 CPM and 14684 CPM
Accumulation (counts per minute; CPM) HEK293-MOCK ([5]; conc 3.70 µM): 350 CPM and 288 CPM and 349 CPM
Accumulation (counts per minute; CPM) HEK293-BSEP ([5]; conc 11.11 µM): 14585 CPM and 13490 CPM and 14701 CPM
Accumulation (counts per minute; CPM) HEK293-MOCK ([5]; conc 11.11 µM): 382 CPM and 355 CPM and 370 CPM
Accumulation (counts per minute; CPM) HEK293-BSEP ([5]; conc 33.33 µM): 14312 CPM and 13194 CPM and 13689 CPM
Accumulation (counts per minute; CPM) HEK293-MOCK ([5]; conc 33.33 µM): 426 CPM and 364 CPM and 386 CPM
Accumulation (counts per minute; CPM) HEK293-BSEP ([5]; conc 100 µM): 10784 CPM and 11964 CPM and 11554 CPM
Accumulation (counts per minute; CPM) HEK293-MOCK ([5]; conc 100 µM): 273 CPM and 371 CPM
Accumulation (counts per minute; CPM) HEK293-NTCP ([6]; conc 0.10 µM): 4707 CPM and 4966 CPM
Accumulation (counts per minute; CPM) HEK293FT-MOCK ([6]; conc 0.10 µM): 25 CPM
Accumulation (counts per minute; CPM) HEK293-NTCP ([6]; conc 1.00 µM): 4654 CPM and 4992 CPM
Accumulation (counts per minute; CPM) HEK293FT-MOCK ([6]; conc 1.00 µM): 29 CPM and 25 CPM
Accumulation (counts per minute; CPM) HEK293-NTCP ([6]; conc 3.00 µM): 4021 CPM and 4291 CPM
Accumulation (counts per minute; CPM) HEK293FT-MOCK ([6]; conc 3.00 µM): 19 CPM and 23 CPM
Accumulation (counts per minute; CPM) HEK293-NTCP ([6]; conc 10.00 µM): 3614 CPM and 3535 CPM
Accumulation (counts per minute; CPM) HEK293FT-MOCK ([6]; conc 10.00 µM): 24 CPM and 36 CPM
Accumulation (counts per minute; CPM) HEK293-NTCP ([6]; conc 30.00 µM): 2611 CPM and 3022 CPM
Accumulation (counts per minute; CPM) HEK293FT-MOCK ([6]; conc 30.00 µM): 21 CPM
Accumulation (counts per minute; CPM) HEK293-NTCP ([6]; conc 100.00 µM): 1462 CPM and 1666 CPM
Accumulation (counts per minute; CPM) HEK293FT-MOCK ([6]; conc 100.00 µM): 25 CPM and 27 CPM
Accumulation (counts per minute; CPM) HEK293-NTCP ([6]; conc 300.00 µM): 771 CPM and 846 CPM
Accumulation (counts per minute; CPM) HEK293FT-MOCK ([6]; conc 300.00 µM): 29 CPM and 23 CPM
IC50 ([6]; transformed HEK cells, up to 300μM, n = 2): 46.8 µM
distribution between liver and serum ([7]; mice, single oral dose 3 mg/kg, 15 min to 24 h): serum was observed to be the central compartment
serum conc ([7]; 0.5 h): 6337 and 10977.8 and 8698.6 and 7860.2
serum conc ([7]; 1 h): 14190.2 and 17872.7 and 14644.7 and 11914.7
serum conc ([7]; 2 h): 4293.9 and 8727 and 12877.2 and 5407.3
serum conc ([7]; 4 h): 1048.2 and 2271.3 and 3572 and 4146.1
serum conc ([7]; 7 h): 456.3 and 1659.3 and 757.1 and 1712.9
serum conc ([7]; 12 h): 198.5 and 247.1 and 27.4 and 10.5
serum conc ([7]; 24 h): 14.5 and 37.9 and 532.6 and 298
Penetration into the liver ([7]; summary comparison CPL207280 vs TAK-875): <
